Source: patent publication US11179369B2, “Sustained release pharmaceutical compositions” (Wyeth, LLC, priority 2003, dated 2021)

Legend:
[1] = Side effects on dosing subject patients with aplindore; format: in vivo, human; conditions: correlated with time period of maximal plasma levels
Source text: In especially preferred embodiments of each of the formulations of the invention, the active compound is aplindore. Aplindore and pharmaceutically acceptable salts thereof are particularly well-suited to treating various disorders of the central nervous system and more particularly to those central nervous disorders relating to the dopaminergic system. Because aplindore (or any drug) requires a sufficient exposure level to achieve its desired effects, the drug must be dosed in a manner sufficient to achieve the particular blood plasma level over a period of time deemed sufficient to meet the clinical objective sought. […] Simply reducing the dose would not always be satisfactory since, while the side effects might lessen or disappear, the overall drug exposure levels might not be satisfactory to treat the particular condition.

Water solubility = format: physicochemical
Protocol: The tablet shapes and total tablet weights were kept same for all four different strengths and for the two different release rate tablets. […] In the formulations of aplindore fumarate 5.0 mg, 2.0 mg, 0.5 mg and 0.05 mg medium and slow release formulations, Lactose Fast Flo has been chosen as the water-soluble compensating excipient. […] It has been used in the 10.0 mg medium release formulation.

water solubility (Water solubility) | Structure (SMILES) | side effects [1]
 | O=C1Cc2c(ccc3c2O[C@@H](CNCc2ccccc2)CO3)N1 [aplindore, S-2-[(Benzylamino)-methyl]-2,3,8,9-tetrahydro-7H-1,4-dioxino[2,3-e]indol-8-one] | side effects including nausea and vomiting
highly water-soluble | O=C(O)/C=C/C(=O)O.O=C1Cc2c(ccc3c2O[C@@H](CNCc2ccccc2)CO3)N1 [aplindore fumarate] | 
